Where a name gives a salt, the structure may show the parent alone. Read-outs that look alike come from different tables or passages of the source.

In assay [1] the target is T1, SARS-CoV-2 PLpro (nsp3 1564–1878) (Severe acute respiratory syndrome coronavirus 2, UniProt P0DTD1). As to the kind of experiment: biochemical. Details: FRET-quenched peptide (Pro3) cleavage by PLpro, 10 min pre-incubation, slope over 20 min, normalised to no-compound control. The following applies: low concentration screen, read-out: % of control remaining.
Assay [2] deals with T1, SARS-CoV-2 PLpro (nsp3 1564–1878). As to the kind of experiment: biochemical. Details: FRET-quenched peptide (Pro3) cleavage by PLpro, 10 min pre-incubation, slope over 20 min, normalised to no-compound control. Particulars: high concentration screen, read-out: % of control remaining.

Regarding `CCN(N=O)c1ccc(O)c(O)c1` [ET-3,4-dephostatin], the remaining activity at 1.25 µM in assay [1] (Well no.=598) amounted to 100%. Also, the remaining activity at 3.75 µM in assay [2] (Well no.=598) turned out to be 102%.
Take `CCCCCCCCCCCCCCCCCCOCC(COP(=O)([O-])OCC[N+](C)(C)C)OC` (centres unmarked) [ET-18-OCH3]: the remaining activity at 1.25 µM in assay [1] (Well no.=502) turned out to be 104%. Moreover, the remaining activity at 3.75 µM in assay [2] (Well no.=502) worked out at 102%.
For the compound `CC(C)(CCCCCC(O)CCCCCC(C)(C)C(=O)O)C(=O)O` [ETC-1002], the remaining activity at 1.25 µM in assay [1] (Well no.=8628) is 101%. Besides, in assay [2] (Well no.=8628), the remaining activity at 3.75 µM worked out at 98.8%.
Regarding `CC(C)(C#N)c1ccc(N2C(=O)OCc3cnc4ccc(-c5cnc6ccccc6c5)cc4c32)cc1` [ETP-46464], in assay [1] (Well no.=5557), the remaining activity at 1.25 µM came out at 101%. Further, the remaining activity at 3.75 µM in assay [2] (Well no.=5557) stood at 97.9%.
In the case of `NC(=O)C1CCCc2c1[nH]c1ccc(Cl)cc21` (centres unmarked) [EX 527], the remaining activity at 1.25 µM in assay [1] (Well no.=5287) is 99%. Moreover, in assay [2] (Well no.=5287), the remaining activity at 3.75 µM turned out to be 97.8%.
Consider `CC[C@@H](C)[C@@H](O)[C@H](C)C(=O)[C@H](C)/C=C(\C)C[C@H](C)[C@@H]1OC(=O)[C@H]1CC` [Ebelactone B], for which the remaining activity at 1.25 µM in assay [1] (Well no.=3269) amounted to 103%. The remaining activity at 3.75 µM in assay [2] (Well no.=3269) is 104%.
For `NC(N)=Nc1nc(CSCCN/C=N/S(=O)(=O)c2ccc(Br)cc2)cs1` [Ebrotidine], the remaining activity at 1.25 µM in assay [1] (Well no.=7003) came out at 106%. Besides, the remaining activity at 3.75 µM in assay [2] (Well no.=7003) turned out to be 103%.
Consider `C[C@H]([C@H](O)CCC(C)(C)O)[C@H]1CC[C@@]2(O)C3=CC(=O)[C@@H]4C[C@@H](O)[C@@H](O)C[C@]4(C)[C@H]3CC[C@]12C` [Ecdysone], for which the remaining activity at 1.25 µM in assay [1] (Well no.=3643) came to 104%. For the same compound, the remaining activity at 3.75 µM in assay [2] (Well no.=3643) turned out to be 102%.
For `COc1cc2c(cc1O)CCN[C@]21CS[C@@H]2c3c(OC(C)=O)c(C)c4c(c3[C@H](COC1=O)N1[C@@H]2[C@H]2c3c(cc(C)c(OC)c3O)C[C@@H]([C@@H]1C#N)N2C)OCO4` [Ecteinascidin 770], the remaining activity at 1.25 µM in assay [1] (Well no.=7070) was found to be 100%. For the same compound, in assay [2] (Well no.=7070), the remaining activity at 3.75 µM was determined as 97.2%.
Take `CCCCCCCCCCCCCCCCCCOCC(COP(=O)([O-])OCC[N+](C)(C)C)OC` (centres unmarked) [Edelfosine]: the remaining activity at 1.25 µM in assay [1] (Well no.=5699) stood at 95.5%. In addition, in assay [2] (Well no.=5699), the remaining activity at 3.75 µM was 96.4%.
As to `CN1CCc2nc(C(=O)N[C@@H]3C[C@@H](C(=O)N(C)C)CC[C@@H]3NC(=O)C(=O)Nc3ccc(Cl)cn3)sc2C1` [Edoxaban], the remaining activity at 1.25 µM in assay [1] (Well no.=8572) was found to be 99.4%. Moreover, the remaining activity at 3.75 µM in assay [2] (Well no.=8572) is 97.7%.
For the compound `CC[N+](C)(C)c1cccc(O)c1` [Edrophonium chloride], in assay [1] (Well no.=555), the remaining activity at 1.25 µM came to 99.7%. Moreover, the remaining activity at 3.75 µM in assay [2] (Well no.=555) worked out at 100%.
Consider `CCC1(C2=NCCN2)Cc2ccccc2O1` (centres unmarked) [Efaroxan hydrochloride], for which, in assay [1] (Well no.=603), the remaining activity at 1.25 µM turned out to be 97.3%. For the same compound, the remaining activity at 3.75 µM in assay [2] (Well no.=603) came to 96.2%.
On to `O=C1Nc2ccc(Cl)cc2[C@@](C#CC2CC2)(C(F)(F)F)O1` [Efavirenz], for which the remaining activity at 1.25 µM in assay [1] (Well no.=2248) was 97.1%. In assay [2] (Well no.=2248), the remaining activity at 3.75 µM was 101%.
As to `NCCCC(N)(C(=O)O)C(F)F` (centres unmarked) [Eflornithine hydrochloride hydrate], the remaining activity at 1.25 µM in assay [1] (Well no.=8636) worked out at 104%. In addition, the remaining activity at 3.75 µM in assay [2] (Well no.=8636) is 95.7%.
In the case of `CCCCCCCCCCC/C=C\C/C=C\CCCC(=O)O` [Eicosa-5,8-dienoic acid (20:2 n-12)], the remaining activity at 1.25 µM in assay [1] (Well no.=4309) is 102%. Also, the remaining activity at 3.75 µM in assay [2] (Well no.=4309) was found to be 106%.
Turning to `CCCCCCCCCCCCCCCCCCCC(=O)O` [Eicosanoic acid], the remaining activity at 1.25 µM in assay [1] (Well no.=4400) was 94.6%. The remaining activity at 3.75 µM in assay [2] (Well no.=4400) turned out to be 93.4%.
Regarding `CC/C=C\C/C=C\C/C=C\C/C=C\C/C=C\CCCC(=O)O` [Eicosapentaenoic acid], the remaining activity at 1.25 µM was found to be 103% in assay [1] (Well no.=4251), 92.3% in assay [1] (Well no.=4448) and 108% in assay [1] (Well no.=7315). Further, the results for the remaining activity at 3.75 µM in assay [2] (Well no.=4251), in assay [2] (Well no.=4448) and in assay [2] (Well no.=7315) were 101%, 96.1% and 103%, respectively.
For `CCCCCCCC/C=C/CCCCCCCC(=O)OC[C@H]1O[C@@H](n2ccc(N)nc2=O)[C@@H](O)[C@@H]1O` [Elacytarabine], the remaining activity at 1.25 µM in assay [1] (Well no.=7716) was 105%. Also, in assay [2] (Well no.=7716), the remaining activity at 3.75 µM came out at 110%.
On to `CSc1ccc(C(=O)/C=C/c2cc(C)c(OC(C)(C)C(=O)O)c(C)c2)cc1` [Elafibranor], for which, in assay [1] (Well no.=8106), the remaining activity at 1.25 µM is 96.6%. The remaining activity at 3.75 µM in assay [2] (Well no.=8106) came to 95.3%.
`COc1cccc(-c2c(C)n(Cc3c(F)cccc3C(F)(F)F)c(=O)n(C[C@H](NCCCC(=O)O)c3ccccc3)c2=O)c1F` [Elagolix]: the remaining activity at 1.25 µM in assay [1] (Well no.=7420) stood at 97.8%. The remaining activity at 3.75 µM in assay [2] (Well no.=7420) worked out at 94.7%.
Consider `CCCCCCCC/C=C/CCCCCCCC(=O)O` [Elaidic acid], for which the remaining activity at 1.25 µM in assay [1] (Well no.=7259) was 96%. The remaining activity at 3.75 µM in assay [2] (Well no.=7259) was determined as 87.3%.
`CN(NC(=O)CC(=O)NN(C)C(=S)c1ccccc1)C(=S)c1ccccc1` [Elesclomol]: the remaining activity at 1.25 µM worked out at 104% in assay [1] (Well no.=5001) and 102% in assay [1] (Well no.=6406). In addition, the remaining activity at 3.75 µM was determined as 107% in assay [2] (Well no.=5001) and 111% in assay [2] (Well no.=6406).
Regarding `CCCCCCCC(=O)N[C@H](CN1CCCC1)[C@H](O)c1ccc2c(c1)OCCO2` [Eliglustat], in assay [1] (Well no.=8530), the remaining activity at 1.25 µM amounted to 100%. Further, in assay [2] (Well no.=8530), the remaining activity at 3.75 µM was 99%.
Regarding `O=c1oc2c(O)c(O)cc3c(=O)oc4c(O)c(O)cc1c4c23` [Ellagic acid], in assay [1] (Well no.=3346), the remaining activity at 1.25 µM was determined as 99.4%. Moreover, in assay [2] (Well no.=3346), the remaining activity at 3.75 µM was 101%.
`Cc1c2ccncc2c(C)c2c1[nH]c1ccccc12` [Ellipticine]: the remaining activity at 1.25 µM in assay [1] (Well no.=651) came to 95.5%; in assay [1] (Well no.=3271), 102%. Further, the remaining activity at 3.75 µM in assay [2] (Well no.=651) is 91.7%; in assay [2] (Well no.=3271) it was 98%.
On to `COc1cc2c(cc1Cc1cccc(Cl)c1F)c(=O)c(C(=O)O)cn2[C@H](CO)C(C)C` [Elvitegravir (GS-9137)], for which the remaining activity at 1.25 µM in assay [1] (Well no.=5008) amounted to 99.3%. The remaining activity at 3.75 µM in assay [2] (Well no.=5008) is 101%.
On to `CCCCCCCCCCCC1=C(O)C(=O)C=C(O)C1=O` [Embelin], for which the remaining activity at 1.25 µM was determined as 105% in assay [1] (Well no.=3273) and 95.2% in assay [1] (Well no.=6494). The remaining activity at 3.75 µM in assay [2] (Well no.=3273) came to 107%; in assay [2] (Well no.=6494), 88.6%.
On to `CC[C@H]1CN2CCc3cc(OC)c(OC)cc3[C@@H]2C[C@@H]1C[C@H]1NCCc2cc(OC)c(OC)cc21` [Emetine dihydrochloride hydrate], for which, in assay [1] (Well no.=646), the remaining activity at 1.25 µM is 104%. In assay [2] (Well no.=646), the remaining activity at 3.75 µM is 103%.

The values above are taken from article PMC8286840, “Identifying SARS-CoV-2 antiviral compounds by screening for small molecule inhibitors of Nsp3 papain-like protease” (Biochemical Journal, 2021).
